pIC50: −log10 of the molar value.
Target: T1, Protein deacetylase HDAC6 (Homo sapiens, UniProt Q9UBN7)
T1 sequence (Q9UBN7 whole entry): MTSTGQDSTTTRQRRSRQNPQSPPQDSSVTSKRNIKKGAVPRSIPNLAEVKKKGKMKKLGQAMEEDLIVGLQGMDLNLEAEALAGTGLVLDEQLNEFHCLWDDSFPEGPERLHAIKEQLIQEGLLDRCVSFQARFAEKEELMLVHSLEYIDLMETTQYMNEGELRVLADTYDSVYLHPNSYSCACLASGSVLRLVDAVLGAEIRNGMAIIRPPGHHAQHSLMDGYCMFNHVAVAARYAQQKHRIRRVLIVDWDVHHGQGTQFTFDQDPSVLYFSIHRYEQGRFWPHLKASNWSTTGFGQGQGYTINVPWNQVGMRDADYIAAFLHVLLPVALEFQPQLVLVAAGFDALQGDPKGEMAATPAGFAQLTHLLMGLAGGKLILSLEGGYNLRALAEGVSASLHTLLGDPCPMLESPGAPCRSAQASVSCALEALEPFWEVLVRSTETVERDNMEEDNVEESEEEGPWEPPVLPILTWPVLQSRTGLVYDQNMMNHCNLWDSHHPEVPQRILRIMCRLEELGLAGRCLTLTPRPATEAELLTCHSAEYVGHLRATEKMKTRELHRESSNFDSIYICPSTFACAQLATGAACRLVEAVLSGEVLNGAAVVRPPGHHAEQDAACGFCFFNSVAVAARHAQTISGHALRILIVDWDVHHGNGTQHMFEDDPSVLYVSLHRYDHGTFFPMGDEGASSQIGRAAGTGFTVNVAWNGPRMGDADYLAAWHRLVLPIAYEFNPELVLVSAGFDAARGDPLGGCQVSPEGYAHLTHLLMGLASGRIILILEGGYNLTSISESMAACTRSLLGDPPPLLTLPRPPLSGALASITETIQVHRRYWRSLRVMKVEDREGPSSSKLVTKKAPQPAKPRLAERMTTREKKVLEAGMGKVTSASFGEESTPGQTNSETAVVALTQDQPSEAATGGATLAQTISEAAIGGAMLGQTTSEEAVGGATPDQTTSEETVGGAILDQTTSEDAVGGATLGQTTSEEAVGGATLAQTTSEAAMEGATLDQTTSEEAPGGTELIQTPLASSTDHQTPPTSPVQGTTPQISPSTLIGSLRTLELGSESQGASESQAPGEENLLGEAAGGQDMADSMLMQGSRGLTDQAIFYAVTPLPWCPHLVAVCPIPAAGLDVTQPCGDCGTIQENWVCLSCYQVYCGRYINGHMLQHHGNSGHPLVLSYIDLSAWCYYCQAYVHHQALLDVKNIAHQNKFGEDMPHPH
Assay: Inhibition of recombinant human full length HDAC6 using Boc-Lys (Ac)-AMC as substrate incubated for 120 mins by fluorescence analysis

Row | Structure (SMILES) | pIC50
1 | COc1cc2c(cc1OCc1ccccc1)CN1C(=O)CC[C@H]1C(=O)N2CCCCCCCC(=O)NO | 6.56
2 | O=C(NO)c1cccc(CN2C(=O)[C@@H]3CCCN3Cc3ccccc32)c1 | < 6.52
3 | COc1cc2c(cc1O)CN1C(=O)CC[C@H]1C(=O)N2Cc1ccc(C(=O)NO)cc1 | 6.90
4 | COc1cc2c(cc1OCc1ccccc1)CN1C(=O)CC[C@H]1C(=O)N2Cc1ccc(C(=O)NO)cc1 | 7.67
5 | O=C(CCCCCCCN1C(=O)[C@@H]2CCCN2Cc2ccccc21)NO | 6.54
6 | COc1cc2c(cc1OCc1ccccc1)CN1C(=O)CC[C@H]1C(=O)N2CCCCCC(=O)NO | 7.76
7 | COc1cc2c(cc1OCc1ccccc1)CN1C(=O)CC[C@H]1C(=O)N2CCCCCCC(=O)NO | 7.92
8 | COc1cc2c(cc1O)CN1C(=O)CC[C@H]1C(=O)N2CCCCCC(=O)NO | 7.81
9 | COc1cc2c(cc1O)CN1C(=O)CC[C@H]1C(=O)N2CCCCCCCC(=O)NO | 6.75
10 | COc1cc2c(cc1OCc1ccccc1)CN1C(=O)CC[C@H]1C(=O)N2Cc1ccccc1C(=O)NO | 6.69

From ChEMBL document CHEMBL5584244, “Discovery of novel pyrrolo[2,1-c][1,4]benzodiazepine-3,11-dione (PBD) derivatives as selective HDAC6 inhibitors for the efficient treatment of idiopathic pulmonary fibrosis (IPF) in vitro and in vivo” (Eur J Med Chem, 2024)
